Measurements taken from ChEMBL document CHEMBL3390848, “Affinity selection and sequence-activity relationships of HIV-1 membrane fusion inhibitors directed at the drug-resistant variants” (Medchemcomm, 2010).
Residues, ends and D or L forms follow the SMILES beside them.

How the values were obtained:
[1] = system: Human immunodeficiency virus 1; experiment: Thermal stability of HIV1 envelope glycoprotein gp41 His-tagged N-terminal heptad repeat N54-drug complex assessed as thermal unfolding transition state by measuring molar ellipticity at 4 to 90 degC by circular dichroic spectra analysis
[2] = system: Human immunodeficiency virus 1; experiment: Antiviral activity against HIV1 NL4-3 harboring gp41 D36G mutant infected in human HeLa cells expressing CD4-LTR-beta-gal assessed as inhibition of viral replication after 48 hrs by MAGI assay; format: functional, organism-based
[3] = system: Human immunodeficiency virus 1; experiment: Binding affinity to HIV1 His-tagged N-terminal heptad repeat of envelope glycoprotein gp41 assessed as recovery of N54-drug complex after 2 hrs by LC-MS analysis; set-up: concentration or dose not given beside the values

SMILES	Tm [1]	EC50 [2]	Activity [3]
CC[C@H](C)[C@H](NC(=O)[C@H](CC(C)C)NC(=O)[C@H](CCC(=O)O)NC(=O)[C@H](CCC(=O)O)NC(=O)[C@@H](NC(=O)[C@H](CC(C)C)NC(=O)[C@H](CO)NC(=O)[C@@H](NC(=O)[C@H](Cc1ccc(O)cc1)NC(C)=O)[C@@H](C)O)[C@@H](C)CC)C(=O)N[C@@H](CCCCN)C(=O)N[C@@H](CCCCN)C(=O)N[C@@H](CC(N)=O)C(=O)N[C@@H](CCC(=O)O)C(=O)N[C@@H](CCC(=O)O)C(=O)N[C@@H](CCC(N)=O)C(=O)N[C@@H](CCC(N)=O)C(=O)N[C@@H](CCCCN)C(=O)N[C@@H](CCCCN)C(=O)N[C@@H](CC(N)=O)C(=O)N[C@@H](CCC(=O)O)C(=O)N[C@@H](CCC(=O)O)C(=O)N[C@@H](CCC(=O)O)C(=O)N[C@@H](CC(C)C)C(=O)N[C@@H](CCCCN)C(=O)N[C@@H](CCCCN)C(=O)N[C@@H](CC(C)C)C(=O)N[C@@H](CCC(=O)O)C(=O)N[C@@H](CCC(=O)O)C(=O)N[C@@H](Cc1c[nH]c2ccccc12)C(=O)N[C@@H](C)C(=O)N[C@@H](CCCCN)C(=O)N[C@@H](CCCCN)C(=O)N[C@@H](Cc1c[nH]c2ccccc12)C(=O)N[C@@H](CC(N)=O)C(=O)N[C@@H](Cc1c[nH]c2ccccc12)C(=O)N[C@@H](Cc1ccccc1)C(N)=O (Ac-YTSLIEELIKKNEEQQKKNEEELKKLEEWAKKWNWF-NH2)	65.7 °C	4.8 nM	3.5%
CC[C@H](C)[C@H](NC(=O)[C@H](CC(C)C)NC(=O)[C@H](CCC(=O)O)NC(=O)[C@H](CCC(=O)O)NC(=O)[C@@H](NC(=O)[C@H](CC(C)C)NC(=O)[C@H](CO)NC(=O)[C@@H](NC(=O)[C@H](Cc1ccc(O)cc1)NC(C)=O)[C@@H](C)O)[C@@H](C)CC)C(=O)N[C@@H](CCCCN)C(=O)N[C@@H](CCCCN)C(=O)N[C@@H](CO)C(=O)N[C@@H](CCC(=O)O)C(=O)N[C@@H](CCC(=O)O)C(=O)N[C@@H](CC(N)=O)C(=O)N[C@@H](CCC(N)=O)C(=O)N[C@@H](CCCCN)C(=O)N[C@@H](CCCCN)C(=O)N[C@@H](CC(N)=O)C(=O)N[C@@H](CCC(=O)O)C(=O)N[C@@H](CCC(=O)O)C(=O)N[C@@H](CCC(=O)O)C(=O)N[C@@H](CC(C)C)C(=O)N[C@@H](CCCCN)C(=O)N[C@@H](CCCCN)C(=O)N[C@@H](CC(C)C)C(=O)N[C@@H](CCC(=O)O)C(=O)N[C@@H](CCC(=O)O)C(=O)N[C@@H](Cc1c[nH]c2ccccc12)C(=O)N[C@@H](C)C(=O)N[C@@H](CCCCN)C(=O)N[C@@H](CCCCN)C(=O)N[C@@H](Cc1c[nH]c2ccccc12)C(=O)N[C@@H](CC(N)=O)C(=O)N[C@@H](Cc1c[nH]c2ccccc12)C(=O)N[C@@H](Cc1ccccc1)C(N)=O (Ac-YTSLIEELIKKSEENQKKNEEELKKLEEWAKKWNWF-NH2)	69 °C	3.6 nM	4.4%
CC[C@H](C)[C@H](NC(=O)[C@H](CC(C)C)NC(=O)[C@H](CCC(=O)O)NC(=O)[C@H](CCC(=O)O)NC(=O)[C@@H](NC(=O)[C@H](CC(C)C)NC(=O)[C@H](CO)NC(=O)[C@@H](NC(=O)[C@H](Cc1ccc(O)cc1)NC(C)=O)[C@@H](C)O)[C@@H](C)CC)C(=O)N[C@@H](CCCCN)C(=O)N[C@@H](CCCCN)C(=O)N[C@@H](CO)C(=O)N[C@@H](CCC(=O)O)C(=O)N[C@@H](CCC(=O)O)C(=O)NCC(=O)N[C@@H](CCC(N)=O)C(=O)N[C@@H](CCCCN)C(=O)N[C@@H](CCCCN)C(=O)N[C@@H](CC(N)=O)C(=O)N[C@@H](CCC(=O)O)C(=O)N[C@@H](CCC(=O)O)C(=O)N[C@@H](CCC(=O)O)C(=O)N[C@@H](CC(C)C)C(=O)N[C@@H](CCCCN)C(=O)N[C@@H](CCCCN)C(=O)N[C@@H](CC(C)C)C(=O)N[C@@H](CCC(=O)O)C(=O)N[C@@H](CCC(=O)O)C(=O)N[C@@H](Cc1c[nH]c2ccccc12)C(=O)N[C@@H](C)C(=O)N[C@@H](CCCCN)C(=O)N[C@@H](CCCCN)C(=O)N[C@@H](Cc1c[nH]c2ccccc12)C(=O)N[C@@H](CC(N)=O)C(=O)N[C@@H](Cc1c[nH]c2ccccc12)C(=O)N[C@@H](Cc1ccccc1)C(N)=O (Ac-YTSLIEELIKKSEEGQKKNEEELKKLEEWAKKWNWF-NH2)	66.2 °C	3 nM	3.4%
CC[C@H](C)[C@H](NC(=O)[C@H](CC(C)C)NC(=O)[C@H](CCC(=O)O)NC(=O)[C@H](CCC(=O)O)NC(=O)[C@@H](NC(=O)[C@H](CC(C)C)NC(=O)[C@H](CO)NC(=O)[C@@H](NC(=O)[C@H](Cc1ccc(O)cc1)NC(C)=O)[C@@H](C)O)[C@@H](C)CC)C(=O)N[C@@H](CCCCN)C(=O)N[C@@H](CCCCN)C(=O)N[C@@H](Cc1cnc[nH]1)C(=O)N[C@@H](CCC(=O)O)C(=O)N[C@@H](CCC(=O)O)C(=O)N[C@@H](CCC(N)=O)C(=O)N[C@@H](CCC(N)=O)C(=O)N[C@@H](CCCCN)C(=O)N[C@@H](CCCCN)C(=O)N[C@@H](CC(N)=O)C(=O)N[C@@H](CCC(=O)O)C(=O)N[C@@H](CCC(=O)O)C(=O)N[C@@H](CCC(=O)O)C(=O)N[C@@H](CC(C)C)C(=O)N[C@@H](CCCCN)C(=O)N[C@@H](CCCCN)C(=O)N[C@@H](CC(C)C)C(=O)N[C@@H](CCC(=O)O)C(=O)N[C@@H](CCC(=O)O)C(=O)N[C@@H](Cc1c[nH]c2ccccc12)C(=O)N[C@@H](C)C(=O)N[C@@H](CCCCN)C(=O)N[C@@H](CCCCN)C(=O)N[C@@H](Cc1c[nH]c2ccccc12)C(=O)N[C@@H](CC(N)=O)C(=O)N[C@@H](Cc1c[nH]c2ccccc12)C(=O)N[C@@H](Cc1ccccc1)C(N)=O (Ac-YTSLIEELIKKHEEQQKKNEEELKKLEEWAKKWNWF-NH2)	58.5 °C	35 nM	3.2%
CC[C@H](C)[C@H](NC(=O)[C@H](CC(C)C)NC(=O)[C@H](CCC(=O)O)NC(=O)[C@H](CCC(=O)O)NC(=O)[C@@H](NC(=O)[C@H](CC(C)C)NC(=O)[C@H](CO)NC(=O)[C@@H](NC(=O)[C@H](Cc1ccc(O)cc1)NC(C)=O)[C@@H](C)O)[C@@H](C)CC)C(=O)N[C@@H](CCCCN)C(=O)N[C@@H](CCCCN)C(=O)N[C@@H](CO)C(=O)N[C@@H](CCC(=O)O)C(=O)N[C@@H](CCC(=O)O)C(=O)N[C@@H](CCCNC(=N)N)C(=O)N[C@@H](CCC(N)=O)C(=O)N[C@@H](CCCCN)C(=O)N[C@@H](CCCCN)C(=O)N[C@@H](CC(N)=O)C(=O)N[C@@H](CCC(=O)O)C(=O)N[C@@H](CCC(=O)O)C(=O)N[C@@H](CCC(=O)O)C(=O)N[C@@H](CC(C)C)C(=O)N[C@@H](CCCCN)C(=O)N[C@@H](CCCCN)C(=O)N[C@@H](CC(C)C)C(=O)N[C@@H](CCC(=O)O)C(=O)N[C@@H](CCC(=O)O)C(=O)N[C@@H](Cc1c[nH]c2ccccc12)C(=O)N[C@@H](C)C(=O)N[C@@H](CCCCN)C(=O)N[C@@H](CCCCN)C(=O)N[C@@H](Cc1c[nH]c2ccccc12)C(=O)N[C@@H](CC(N)=O)C(=O)N[C@@H](Cc1c[nH]c2ccccc12)C(=O)N[C@@H](Cc1ccccc1)C(N)=O (Ac-YTSLIEELIKKSEERQKKNEEELKKLEEWAKKWNWF-NH2)	68.9 °C	1.5 nM	7.2%
CC[C@H](C)[C@H](NC(=O)[C@H](CC(C)C)NC(=O)[C@H](CCC(=O)O)NC(=O)[C@H](CCC(=O)O)NC(=O)[C@@H](NC(=O)[C@H](CC(C)C)NC(=O)[C@H](CO)NC(=O)[C@@H](NC(=O)[C@H](Cc1ccc(O)cc1)NC(C)=O)[C@@H](C)O)[C@@H](C)CC)C(=O)N[C@@H](CCCCN)C(=O)N[C@@H](CCCCN)C(=O)N[C@@H](CO)C(=O)N[C@@H](CCC(=O)O)C(=O)N[C@@H](CCC(=O)O)C(=O)N1CCC[C@H]1C(=O)N[C@@H](CCC(N)=O)C(=O)N[C@@H](CCCCN)C(=O)N[C@@H](CCCCN)C(=O)N[C@@H](CC(N)=O)C(=O)N[C@@H](CCC(=O)O)C(=O)N[C@@H](CCC(=O)O)C(=O)N[C@@H](CCC(=O)O)C(=O)N[C@@H](CC(C)C)C(=O)N[C@@H](CCCCN)C(=O)N[C@@H](CCCCN)C(=O)N[C@@H](CC(C)C)C(=O)N[C@@H](CCC(=O)O)C(=O)N[C@@H](CCC(=O)O)C(=O)N[C@@H](Cc1c[nH]c2ccccc12)C(=O)N[C@@H](C)C(=O)N[C@@H](CCCCN)C(=O)N[C@@H](CCCCN)C(=O)N[C@@H](Cc1c[nH]c2ccccc12)C(=O)N[C@@H](CC(N)=O)C(=O)N[C@@H](Cc1c[nH]c2ccccc12)C(=O)N[C@@H](Cc1ccccc1)C(N)=O (Ac-YTSLIEELIKKSEEPQKKNEEELKKLEEWAKKWNWF-NH2)	52 °C	> 1000 nM	0.3%
CC[C@H](C)[C@H](NC(=O)[C@H](CC(C)C)NC(=O)[C@H](CCC(=O)O)NC(=O)[C@H](CCC(=O)O)NC(=O)[C@@H](NC(=O)[C@H](CC(C)C)NC(=O)[C@H](CO)NC(=O)[C@@H](NC(=O)[C@H](Cc1ccc(O)cc1)NC(C)=O)[C@@H](C)O)[C@@H](C)CC)C(=O)N[C@@H](CCCCN)C(=O)N[C@@H](CCCCN)C(=O)N[C@@H](CO)C(=O)N[C@@H](CCC(=O)O)C(=O)N[C@@H](CCC(=O)O)C(=O)N[C@@H](CCSC)C(=O)N[C@@H](CCC(N)=O)C(=O)N[C@@H](CCCCN)C(=O)N[C@@H](CCCCN)C(=O)N[C@@H](CC(N)=O)C(=O)N[C@@H](CCC(=O)O)C(=O)N[C@@H](CCC(=O)O)C(=O)N[C@@H](CCC(=O)O)C(=O)N[C@@H](CC(C)C)C(=O)N[C@@H](CCCCN)C(=O)N[C@@H](CCCCN)C(=O)N[C@@H](CC(C)C)C(=O)N[C@@H](CCC(=O)O)C(=O)N[C@@H](CCC(=O)O)C(=O)N[C@@H](Cc1c[nH]c2ccccc12)C(=O)N[C@@H](C)C(=O)N[C@@H](CCCCN)C(=O)N[C@@H](CCCCN)C(=O)N[C@@H](Cc1c[nH]c2ccccc12)C(=O)N[C@@H](CC(N)=O)C(=O)N[C@@H](Cc1c[nH]c2ccccc12)C(=O)N[C@@H](Cc1ccccc1)C(N)=O (Ac-YTSLIEELIKKSEEMQKKNEEELKKLEEWAKKWNWF-NH2)	74.6 °C	0.9 nM	9.2%
